Like-named read-outs stand apart in the source and are kept apart here.
Molecular target: T1, LRRK2 (endogenous, HiBit tagged) (Homo sapiens, UniProt Q5S007)
T1 construct: endogenous in cells; host or cells: HEK293 cells with HiBit knock-in at the endogenous LRRK2 locus, stably expressing firefly luciferase
Test: Endogenous LRRK2 degradation assay, endogenous gene C-terminally HiBit-tagged in HEK293 cells (Nano-Glo Dual Luciferase)
Format: cell-based
Summary of the method: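 LRRK2-HiBit quantified via Nano-Glo Dual Luciferase in HEK293 knock-in cells co-expressing firefly luciferase, after 24 h exposure to compound (1 μM final top, 1:3, 11 points). Values normalised to DMSO median per plate and curve-fitted; Alamar Blue viability run alongside.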

[1] = endogenous HiBit-tagged LRRK2 in HEK293 cells, 24 hours treatment, read-out: Endogenous WT DC50
[2] = endogenous HiBit-tagged LRRK2 in HEK293 cells, 24 hours treatment, read-out: Endogenous WT Dmax
[3] = endogenous HiBit-tagged LRRK2 in HEK293 cells, 24 hours treatment, read-out: **Endogenous WT Dmax (%)
[4] = endogenous HiBit-tagged LRRK2 in HEK293 cells, 24 hours treatment, read-out: *Endogenous WT DC50

T1 sequence (Q5S007 whole entry): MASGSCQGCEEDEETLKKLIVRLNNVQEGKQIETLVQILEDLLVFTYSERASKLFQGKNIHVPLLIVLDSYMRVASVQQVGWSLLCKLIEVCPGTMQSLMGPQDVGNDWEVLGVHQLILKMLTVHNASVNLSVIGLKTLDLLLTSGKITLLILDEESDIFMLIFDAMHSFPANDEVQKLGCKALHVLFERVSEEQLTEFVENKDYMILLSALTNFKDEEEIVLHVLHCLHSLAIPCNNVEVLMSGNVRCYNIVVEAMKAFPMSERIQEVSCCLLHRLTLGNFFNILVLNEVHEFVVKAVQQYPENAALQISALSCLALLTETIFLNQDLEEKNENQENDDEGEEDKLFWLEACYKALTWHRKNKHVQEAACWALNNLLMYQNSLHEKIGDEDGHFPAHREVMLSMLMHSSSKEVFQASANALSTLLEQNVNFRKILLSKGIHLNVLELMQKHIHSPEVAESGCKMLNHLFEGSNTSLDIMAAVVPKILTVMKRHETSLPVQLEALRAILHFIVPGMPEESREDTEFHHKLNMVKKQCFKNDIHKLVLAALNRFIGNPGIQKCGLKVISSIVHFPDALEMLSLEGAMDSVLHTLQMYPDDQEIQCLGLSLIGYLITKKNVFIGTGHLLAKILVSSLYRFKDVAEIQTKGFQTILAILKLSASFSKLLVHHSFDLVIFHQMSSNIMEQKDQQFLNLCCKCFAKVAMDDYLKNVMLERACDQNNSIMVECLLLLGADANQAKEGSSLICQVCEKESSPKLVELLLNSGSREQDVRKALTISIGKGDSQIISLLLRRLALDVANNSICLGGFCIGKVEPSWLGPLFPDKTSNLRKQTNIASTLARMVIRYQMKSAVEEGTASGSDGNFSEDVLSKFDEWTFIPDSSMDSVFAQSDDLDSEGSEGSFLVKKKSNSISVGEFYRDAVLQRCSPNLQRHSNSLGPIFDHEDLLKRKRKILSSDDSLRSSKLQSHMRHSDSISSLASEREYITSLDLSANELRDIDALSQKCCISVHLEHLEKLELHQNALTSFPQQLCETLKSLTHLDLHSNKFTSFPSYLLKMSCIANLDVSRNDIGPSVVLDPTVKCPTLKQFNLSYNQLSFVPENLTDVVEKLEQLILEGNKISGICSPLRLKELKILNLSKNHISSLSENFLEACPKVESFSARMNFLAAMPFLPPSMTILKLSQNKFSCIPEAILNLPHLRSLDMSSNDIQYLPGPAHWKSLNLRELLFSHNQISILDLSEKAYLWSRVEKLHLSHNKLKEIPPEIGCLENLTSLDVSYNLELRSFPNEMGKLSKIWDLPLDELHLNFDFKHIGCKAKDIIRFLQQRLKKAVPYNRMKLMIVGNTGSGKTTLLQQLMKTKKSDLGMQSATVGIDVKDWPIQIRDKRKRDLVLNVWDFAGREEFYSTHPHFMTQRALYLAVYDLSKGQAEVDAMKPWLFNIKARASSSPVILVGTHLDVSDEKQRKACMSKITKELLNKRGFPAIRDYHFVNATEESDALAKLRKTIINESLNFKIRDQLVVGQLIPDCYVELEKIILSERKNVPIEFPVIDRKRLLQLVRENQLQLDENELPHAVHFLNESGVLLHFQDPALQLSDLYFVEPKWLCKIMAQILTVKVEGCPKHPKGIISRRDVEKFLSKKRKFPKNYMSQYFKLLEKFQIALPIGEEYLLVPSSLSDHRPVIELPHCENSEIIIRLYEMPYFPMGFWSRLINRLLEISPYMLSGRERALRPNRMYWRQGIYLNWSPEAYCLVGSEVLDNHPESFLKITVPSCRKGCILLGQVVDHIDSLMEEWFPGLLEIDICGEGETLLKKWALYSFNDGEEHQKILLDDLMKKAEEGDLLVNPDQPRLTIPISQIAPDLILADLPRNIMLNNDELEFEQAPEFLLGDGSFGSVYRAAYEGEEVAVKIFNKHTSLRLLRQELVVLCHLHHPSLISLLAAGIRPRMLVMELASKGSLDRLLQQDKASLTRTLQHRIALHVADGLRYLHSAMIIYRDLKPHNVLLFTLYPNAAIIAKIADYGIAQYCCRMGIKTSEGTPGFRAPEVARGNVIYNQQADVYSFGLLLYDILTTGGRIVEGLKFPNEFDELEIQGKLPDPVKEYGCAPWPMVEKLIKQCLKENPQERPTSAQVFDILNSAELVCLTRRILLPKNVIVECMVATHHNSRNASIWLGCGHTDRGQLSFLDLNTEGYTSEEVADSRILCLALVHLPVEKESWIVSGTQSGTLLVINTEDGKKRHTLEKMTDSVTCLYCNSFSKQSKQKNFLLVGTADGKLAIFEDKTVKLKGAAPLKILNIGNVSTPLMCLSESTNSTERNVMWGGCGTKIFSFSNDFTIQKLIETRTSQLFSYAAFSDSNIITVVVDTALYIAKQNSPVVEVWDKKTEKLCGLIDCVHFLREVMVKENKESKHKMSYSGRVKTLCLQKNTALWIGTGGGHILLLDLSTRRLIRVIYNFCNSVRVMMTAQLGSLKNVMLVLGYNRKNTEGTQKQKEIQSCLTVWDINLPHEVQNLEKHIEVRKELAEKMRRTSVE

Row | DC50 [1] [nM] | Dmax [2] [%] | Dmax [3] [%] | DC50 [4] [nM] | SMILES | further results
1 | – | – | – | – | CC1(Oc2cc3c(-c4cc(N5CCC(CN6CCN(CC7CCN(c8ccc9c(c8F)CN(C8CCC(=O)NC8=O)C9=O)CC7)CC6)CC5)ncn4)n[nH]c3cc2F)CC1 (stereo not shown) [Compound 186, 3-[4-fluoro-5-[4-[[4-[[1-[6-[6-fluoro-5-(1-methylcyclopropoxy)-1H-indazol-3-yl]pyrimidin-4-yl]-4-piperidyl]methyl]piperazin-1-yl]methyl]-1-piperidyl]-1-oxo-isoindolin-2-yl]piperidine-2,6-dione] | Dmax (endogenous HiBit-tagged LRRK2, HEK293 cells, 24 hours, read-out: **Endogenous WT Dmax (%)): ≥ 70%; DC50 (endogenous HiBit-tagged LRRK2, HEK293 cells, 24 hours, read-out: *Endogenous WT DC50): < 10 nM
2 | < 10 | 50 to 70 | – | – | CC1(Oc2ccc3[nH]nc(-c4cc(N5CCC(CN6CCN(CC7CCN(c8ccc9c(c8F)CN(C8CCC(=O)NC8=O)C9=O)CC7)C(C)(C)C6)CC5)ncn4)c3c2)CC1 (stereo not shown) [Compound 236, 3-[5-[4-[[2,2-dimethyl-4-[[1-[6-[5-(1-methylcyclopropoxy)-1H-indazol-3-yl]pyrimidin-4-yl]-4-piperidyl]methyl]piperazin-1-yl]methyl]-1-piperidyl]-4-fluoro-1-oxo-isoindolin-2-yl]piperidine-2,6-dione] | –
3 | < 10 | 50 to 70 | – | – | COc1c(N2CCC(CN3CCC(F)(CN4CCN(c5cc(-c6n[nH]c7ccc(OC8(C)CC8)cc67)ncn5)CC4)CC3)CC2)ccc2c1CN(C1CCC(=O)NC1=O)C2=O (stereo not shown) [Compound 212, 3-[5-[4-[[4-fluoro-4-[[4-[6-[5-(1-methylcyclopropoxy)-1H-indazol-3-yl]pyrimidin-4-yl]piperazin-1-yl]methyl]-1-piperidyl]methyl]-1-piperidyl]-4-methoxy-1-oxo-isoindolin-2-yl]piperidine-2,6-dione] | –
4 | < 10 | 50 to 70 | – | – | CC1(Oc2cc3c(-c4cc(N5CCC(CN6CCN(CC7CCN(c8ccc9c(c8F)CN(C8CCC(=O)NC8=O)C9=O)CC7)CC6(C)C)CC5)ncn4)n[nH]c3cn2)CC1 (stereo not shown) [Compound 247, 3-{5-[4-({3,3-dimethyl-4-[(1-{6-[5-(1-methylcyclopropoxy)-1H-pyrazolo[3,4-c]pyridin-3-yl]pyrimidin-4-yl}piperidin-4-yl)methyl]piperazin-1-yl}methyl)piperidin-1-yl]-4-fluoro-1-oxo-2,3-dihydro-1H-isoindol-2-yl}piperidine-2,6-dione] | –
5 | – | – | 50 to 70 | < 10 | COc1c(N2CCN(C[C@H]3CO[C@H](CN4CCN(c5cc(-c6n[nH]c7cnc(OC8(C)CC8)cc67)ncn5)CC4)CO3)CC2)ccc2c1CN(C1CCC(=O)NC1=O)C2=O (stereo partly shown) [Compound 302, 3-[4-methoxy-5-(4-{[(2s,5r)-5-[(4-{6-[5-(1-methylcyclopropoxy)-1H-pyrazolo[3,4-c]pyridin-3-yl]pyrimidin-4-yl}piperazin-1-yl)methyl]-1,4-dioxan-2-yl]methyl}piperazin-1-yl)-1-oxo-2,3-dihydro-1H-isoindol-2-yl]piperidine-2,6-dione] | –
6 | – | – | 50 to 70 | < 10 | COc1c(N2CCN(C[C@H]3CC[C@H](CN4CCN(c5cc(-c6n[nH]c7cnc(OC8(C)CC8)cc67)ncn5)CC4)CC3)CC2)ccc2c1CN(C1CCC(=O)NC1=O)C2=O (stereo partly shown) [Compound 261, 3-[4-methoxy-1-oxo-5-(4-{[(1r,4r)-4-[(4-{6-[5-(1-methylcyclopropoxy)-1H-pyrazolo[3,4-c]pyridin-3-yl]pyrimidin-4-yl}piperazin-1-yl)methyl]cyclohexyl]methyl}piperazin-1-yl)-2,3-dihydro-1H-isoindol-2-yl]piperidine-2,6-dione] | –
7 | < 10 | 50 to 70 | – | – | COc1c(N2CCC(CN3CCN(CC4CCN(c5cc(-c6n[nH]c7cc(F)c(OC8(C)CC8)cc67)ncn5)CC4)C(C)(C)C3)CC2)ccc2c1CN(C1CCC(=O)NC1=O)C2=O (stereo not shown) [Compound 359, 3-{5-[4-({4-[(1-{6-[6-fluoro-5-(1-methylcyclopropoxy)-1H-indazol-3-yl]pyrimidin-4-yl}piperidin-4-yl)methyl]-3,3-dimethylpiperazin-1-yl}methyl)piperidin-1-yl]-4-methoxy-1-oxo-2,3-dihydro-1H-isoindol-2-yl}piperidine-2,6-dione] | –
8 | – | – | 50 to 70 | < 10 | COc1c(N2CC3(CCN(CC4CCN(c5cc(-c6n[nH]c7ccc(OC8(C)CC8)cc67)ncn5)CC4)CC3(F)F)C2)ccc2c1CN(C1CCC(=O)NC1=O)C2=O (stereo not shown) [Compound 332, 3-(5-{5,5-difluoro-7-[(1-{6-[5-(1-methylcyclopropoxy)-1H-indazol-3-yl]pyrimidin-4-yl}piperidin-4-yl)methyl]-2,7-diazaspiro[3.5]nonan-2-yl}-4-methoxy-1-oxo-2,3-dihydro-1H-isoindol-2-yl)piperidine-2,6-dione] | –
9 | < 10 | 50 to 70 | – | – | Cc1nc(-c2n[nH]c3ccc(OC4(C)CC4)cc23)cc(N2CCN(C[C@H]3CC[C@H](OC4CCN(c5ccc6c(c5F)CN(C5CCC(=O)NC5=O)C6=O)CC4)CC3)CC2)n1 (stereo partly shown) [Compound 365, 3-[4-fluoro-1-oxo-5-(4-{[(1r,4r)-4-[(4-{2-methyl-6-[5-(1-methylcyclopropoxy)-1H-indazol-3-yl]pyrimidin-4-yl}piperazin-1-yl)methyl]cyclohexyl]oxy}piperidin-1-yl)-2,3-dihydro-1H-isoindol-2-yl]piperidine-2,6-dione] | –
10 | < 10 | ≥ 70 | – | – | CC1(Oc2ccc3n[nH]c(-c4cc(N5CCC(O[C@H]6CC[C@H](CN7CCN(c8ccc9c(c8F)CN(C8CCC(=O)NC8=O)C9=O)CC7)CC6)CC5)ncn4)c3c2)CC1 (stereo partly shown) [Compound 213, 3-[4-fluoro-5-[4-[[4-[[1-[6-[5-(1-methylcyclopropoxy)-2H-indazol-3-yl]pyrimidin-4-yl]-4-piperidyl]oxy]cyclohexyl]methyl]piperazin-1-yl]-1-oxo-isoindolin-2-yl]piperidine-2,6-dione] | –
11 | – | – | 50 to 70 | < 10 | C[C@H]1CN(CC2CCN(c3cc(-c4n[nH]c5cnc(OC6(C)CC6)cc45)ncn3)CC2)CCN1CC1CCN(c2ccc3c(c2F)CN(C2CCC(=O)NC2=O)C3=O)CC1 (stereo partly drawn) [Compound 276, 3-[4-fluoro-5-(4-{[(2S)-2-methyl-4-[(1-{6-[5-(1-methylcyclopropoxy)-1H-pyrazolo[3,4-c]pyridin-3-yl]pyrimidin-4-yl}piperidin-4-yl)methyl]piperazin-1-yl]methyl}piperidin-1-yl)-1-oxo-2,3-dihydro-1H-isoindol-2-yl]piperidine-2,6-dione] | –
12 | < 10 | 50 to 70 | – | – | CC1(Oc2ccc3[nH]nc(-c4cc(N5CCC(O[C@H]6CC[C@H](CN7CCN(c8ccc9c(c8F)CN(C8CCC(=O)NC8=O)C9=O)C(C)(C)C7)CC6)CC5)ncn4)c3c2)CC1 (stereo partly shown) [Compound 378, 3-[5-(2,2-dimethyl-4-{[(1r,4r)-4-[(1-{6-[5-(1-methylcyclopropoxy)-1H-indazol-3-yl]pyrimidin-4-yl}piperidin-4-yl)oxy]cyclohexyl]methyl}piperazin-1-yl)-4-fluoro-1-oxo-2,3-dihydro-1H-isoindol-2-yl]piperidine-2,6-dione] | –
13 | 10 to 50 | 50 to 70 | – | – | CC1(Oc2ccc3n[nH]c(-c4cc(N5CCC(O[C@H]6CC[C@H](OC7CCN(c8ccc9c(c8F)CN(C8CCC(=O)NC8=O)C9=O)CC7)CC6)CC5)ncn4)c3c2)CC1 (stereo partly shown) [Compound 228, 3-[4-fluoro-5-[4-[4-[[1-[6-[5-(1-methylcyclopropoxy)-2H-indazol-3-yl]pyrimidin-4-yl]-4-piperidyl]oxy]cyclohexoxy]-1-piperidyl]-1-oxo-isoindolin-2-yl]piperidine-2,6-dione] | –
14 | – | – | ≥ 70 | 10 to 50 | CC1(Oc2ccc3[nH]nc(-c4cc(N5CCN(C[C@H]6CC[C@H](OC7CCN(c8c(F)cc9c(c8F)CN(C8CCC(=O)NC8=O)C9=O)CC7)CC6)CC5)ncn4)c3c2)CC1 (stereo partly shown) [Compound 286, 3-[4,6-difluoro-1-oxo-5-(4-{[(1r,4r)-4-[(4-{6-[5-(1-methylcyclopropoxy)-1H-indazol-3-yl]pyrimidin-4-yl}piperazin-1-yl)methyl]cyclohexyl]oxy}piperidin-1-yl)-2,3-dihydro-1H-isoindol-2-yl]piperidine-2,6-dione] | –
15 | – | – | ≥ 70 | < 10 | CC1(Oc2cc3c(-c4cc(N5CCN(C[C@H]6CC[C@H](CN7CCN(c8ccc9c(c8F)CN(C8CCC(=O)NC8=O)C9=O)CC7)CC6)CC5)ncn4)n[nH]c3cn2)CC1 (stereo partly shown) [Compound 267, 3-[4-fluoro-1-oxo-5-(4-{[(1r,4r)-4-[(4-{6-[5-(1-methylcyclopropoxy)-1H-pyrazolo[3,4-c]pyridin-3-yl]pyrimidin-4-yl}piperazin-1-yl)methyl]cyclohexyl]methyl}piperazin-1-yl)-2,3-dihydro-1H-isoindol-2-yl]piperidine-2,6-dione] | –
16 | – | – | ≥ 70 | < 10 | CC1(Oc2ccc3[nH]nc(-c4cc(N5CCC(CN6CCN(C(C)(C)C7CCN(c8ccc9c(c8F)CN(C8CCC(=O)NC8=O)C9=O)CC7)CC6)CC5)ncn4)c3c2)CC1 (stereo not shown) [Compound 309, 3-{4-fluoro-5-[4-(2-{4-[(1-{6-[5-(1-methylcyclopropoxy)-1H-indazol-3-yl]pyrimidin-4-yl}piperidin-4-yl)methyl]piperazin-1-yl}propan-2-yl)piperidin-1-yl]-1-oxo-2,3-dihydro-1H-isoindol-2-yl}piperidine-2,6-dione] | –

Row | SMILES | DC50 [1] [nM] | Dmax [2] [%] | Dmax [3] [%] | DC50 [4] [nM] | further results
17 | CC1(Oc2cc3c(-c4cc(N5CCC(O[C@H]6C[C@@H](OC7CCN(c8ccc9c(c8F)CN(C8CCC(=O)NC8=O)C9=O)CC7)C6)CC5)ncn4)n[nH]c3cn2)CC1 (stereo partly shown) [Compound 233, 3-(4-fluoro-1-oxo-5-{4-[(1s,3s)-3-[(1-{6-[5-(1-methylcyclopropoxy)-1H-pyrazolo[3,4-c]pyridin-3-yl]pyrimidin-4-yl}piperidin-4-yl)oxy]cyclobutoxy]piperidin-1-yl}-2,3-dihydro-1H-isoindol-2-yl)piperidine-2,6-dione] | < 10 | 50 to 70 | – | – | –
